Results published in patent US20240228504A1, “SUBSTITUTED TRICYCLIC AMIDES, ANALOGUES THEREOF, AND METHODS USING SAME” (Arbutus Biopharma Corporation, priority 2020, published 2024).

These molecules were tested on HBV rcDNA in HepDE19 cells (assay: HepDE19 assay with bDNA quantitation of HBV rcDNA). Conditions: HepDE19 assay, inhibition of rcDNA formation, bDNA quantitation; read-out: DE-19bDNA EC50.
Type: cell-based, hepatitis B virus

**Q.** How did the EC50 turn out when `CN(C(=O)c1cc(F)c(C(F)F)c(F)c1)C1CNCc2[nH]c(=O)c3cc(F)c(F)cc3c21` (single isomer, unassigned) [Compound 184, N-(8,9-Difluoro-6-oxo-1,2,3,4,5,6-hexahydrobenzo[c][1,7]naphthyridin-1-yl)-4-(difluoromethyl)-3,5-difluoro-N-methylbenzamide] was run?
**A.** 70 nM

**Q.** With `CN(C(=O)c1cc2ccc(F)cc2[nH]1)C1COCc2[nH]c(=O)c3cc(F)c(F)cc3c21` (single isomer, unassigned) [Compound 26, N-(8,9-Difluoro-6-oxo-1,4,5,6-tetrahydro-2H-pyrano[3,4-c]isoquinolin-1-yl)-6-fluoro-N-methyl-1H-indole-2-carboxamide] as the molecule, how does the EC50 read?
**A.** 10 nM

**Q.** How did the EC50 turn out when `CC(O)c1cc(F)cc2[nH]c(C(=O)N(C)[C@@H]3COCc4[nH]c(=O)c5cc(F)c(F)cc5c43)cc12` (single isomer, unassigned) [Compound 354] was run?
**A.** 20 nM

**Q.** `CN(C(=O)c1cc2ccc(F)cc2[nH]1)C1COCc2[nH]c(=O)c3cc(F)ccc3c21` (single isomer, unassigned) [Compound 31, 6-Fluoro-N-(8-fluoro-6-oxo-1,4,5,6-tetrahydro-2H-pyrano[3,4-c]isoquinolin-1-yl)-N-methyl-1H-indole-2-carboxamide] was tested. Which EC50 did it give?
**A.** 1200 nM

**Q.** With `CN1Cc2[nH]c(=O)c3cc(F)c(F)cc3c2C(N(C)C(=O)c2cc3ccccc3[nH]2)C1` (single isomer, unassigned) [Compound 63, N-(8,9-Difluoro-3-methyl-6-oxo-1,2,3,4,5,6-hexahydrobenzo[c][1,7]naphthyridin-1-yl)-N-methyl-1H-indole-2-carboxamide] as the molecule, how does the EC50 read?
**A.** 170 nM

**Q.** How did the EC50 turn out when `CN(C(=O)c1cc2c(Cl)cc(F)cc2[nH]1)C1COCc2[nH]c(=O)c3cc(F)ccc3c21` (single isomer, unassigned) [Compound 438, 4-Chloro-6-fluoro-N-(8-fluoro-6-oxo-1,4,5,6-tetrahydro-2H-pyrano[3,4-c]isoquinolin-1-yl)-N-methyl-1H-indole-2-carboxamide] was run?
**A.** 1700 nM

**Q.** For `CN(C(=O)c1cc2cccc(F)c2[nH]1)C1COCc2[nH]c(=O)c3cc(F)c(F)cc3c21` (single isomer, unassigned) [Compound 40, N-(8,9-Difluoro-6-oxo-1,4,5,6-tetrahydro-2H-pyrano[3,4-c]isoquinolin-1-yl)-7-fluoro-N-methyl-1H-indole-2-carboxamide], which EC50 is on record?
**A.** 10 nM

**Q.** How did the EC50 turn out when `CN(C(=O)c1cc2c(F)cccn2c1)C1C[S+]([O-])Cc2[nH]c(=O)c3cc(F)c(F)cc3c21` (single isomer, unassigned) [Compound 150, N-(8,9-Difluoro-3-oxido-6-oxo-1,4,5,6-tetrahydro-2H-thiopyrano[3,4-c]isoquinolin-1-yl)-8-fluoro-N-methylindolizine-2-carboxamide] was run?
**A.** 1100 nM

**Q.** With `CN(C(=O)c1cc2ccccc2[nH]1)C1COCc2[nH]c(=O)c3cc(F)ccc3c21` (single isomer, unassigned) [Compound 1, N-(8-Fluoro-6-oxo-1,4,5,6-tetrahydro-2H-pyrano[3,4-c]isoquinolin-1-yl)-N-methyl-1H-indole-2-carboxamide] as the molecule, how does the EC50 read?
**A.** 8600 nM

**Q.** Which EC50 does the source give for `CN(C(=O)c1cc2cc(F)ccc2[nH]1)C1COCc2[nH]c(=O)c3cc(F)c(F)cc3c21` (single isomer, unassigned) [Compound 27, N-(8,9-Difluoro-6-oxo-1,4,5,6-tetrahydro-2H-pyrano[3,4-c]isoquinolin-1-yl)-5-fluoro-N-methyl-1H-indole-2-carboxamide] here?
**A.** 370 nM

**Q.** `CN(C(=O)c1cc2c(C(F)F)cccn2c1)C1CNCc2[nH]c(=O)c3cc(F)c(F)cc3c21` (single isomer, unassigned) [Compound 430, N-(8,9-Difluoro-6-oxo-1,2,3,4,5,6-hexahydrobenzo[c][1,7]naphthyridin-1-yl)-8-(difluoromethyl)-N-methylindolizine-2-carboxamide] was tested. Which EC50 did it give?
**A.** 6300 nM

**Q.** How did the EC50 turn out when `CN(C(=O)c1cc2ccccc2[nH]1)C1CCCc2[nH]c(=O)c3cc(F)ccc3c21` (single isomer, unassigned) [Compound 475, N-(8-Fluoro-6-oxo-1,2,3,4,5,6-hexahydrophenanthridin-1-yl)-N-methyl-1H-indole-2-carboxamide] was run?
**A.** 1800 nM

Same assay, conditions: Hepatitis B virus, HepDE19, HepDE19 assay, inhibition of rcDNA formation, bDNA quantitation; read-out: DE-19bDNA EC50

**Q.** How did the EC50 turn out when `CN(C(=O)[C@H](O)c1cccc(Cl)c1)[C@@H]1COCc2[nH]c(=O)c3cc(F)c(F)cc3c21` [Compound 138, (R)-2-(3-Chlorophenyl)-N-((S)-8,9-difluoro-6-oxo-1,4,5,6-tetrahydro-2H-pyrano[3,4-c]isoquinolin-1-yl)-2-hydroxy-N-methylacetamide] was run?
**A.** 1200 nM

**Q.** Which EC50 does the source give for `CN(C(=O)c1cc2cc(F)c(F)cc2[nH]1)[C@@H]1COC(F)c2[nH]c(=O)c3cc(F)c(F)cc3c21` (stereo partly drawn) [Compound 411, 5,6-Difluoro-N-methyl-N-((1S)-4,8,9-trifluoro-6-oxo-1,4,5,6-tetrahydro-2H-pyrano[3,4-c]isoquinolin-1-yl)-1H-indole-2-carboxamide] here?
**A.** 10 nM

**Q.** `CN(C(=O)c1ccc2c(c1)CCC2)[C@@H]1COCc2[nH]c(=O)c3cc(F)c(F)cc3c21` [Compound 408, (S)-N-(8,9-Difluoro-6-oxo-1,4,5,6-tetrahydro-2H-pyrano[3,4-c]isoquinolin-1-yl)-N-methyl-2,3-dihydro-1H-indene-5-carboxamide] was tested. Which EC50 did it give?
**A.** 40 nM

**Q.** With `CN(C(=O)c1cnc(C(F)(F)F)c(F)c1)C1CNCc2[nH]c(=O)c3cc(F)c(F)cc3c21` (single isomer, unassigned) [Compound 435, N-(8,9-Difluoro-6-oxo-1,2,3,4,5,6-hexahydrobenzo[c][1,7]naphthyridin-1-yl)-5-fluoro-N-methyl-6-(trifluoromethyl)nicotinamide] as the molecule, how does the EC50 read?
**A.** 260 nM

**Q.** `CN(C(=O)c1ccc(F)c(Br)c1)[C@@H]1COCc2[nH]c(=O)c3cc(F)c(F)cc3c21` [Compound 130, (S)-3-Bromo-N-(8,9-difluoro-6-oxo-1,4,5,6-tetrahydro-2H-pyrano[3,4-c]isoquinolin-1-yl)-4-fluoro-N-methylbenzamide] was tested. Which EC50 did it give?
**A.** 10 nM

**Q.** With `CN(C(=O)c1ccc(F)c(C(F)F)c1)[C@@H]1COCc2[nH]c(=O)c3cc(F)c(F)cc3c21` [Compound 109, (S)-N-(8,9-Difluoro-6-oxo-1,4,5,6-tetrahydro-2H-pyrano[3,4-c]isoquinolin-1-yl)-3-(difluoromethyl)-4-fluoro-N-methylbenzamide] as the molecule, how does the EC50 read?
**A.** 20 nM

**Q.** `CN(C(=O)c1cc2cc(F)c(C(F)F)cc2[nH]1)[C@@H]1COC(=O)c2[nH]c(=O)c3cc(F)c(F)cc3c21` [Compound 478, (S)-N-(8,9-Difluoro-4,6-dioxo-1,4,5,6-tetrahydro-2H-pyrano[3,4-c]isoquinolin-1-yl)-6-(difluoromethyl)-5-fluoro-N-methyl-1H-indole-2-carboxamide] was tested. Which EC50 did it give?
**A.** 10 nM

**Q.** For `CN(C(=O)c1cc2cc(C(F)(F)F)ncc2[nH]1)[C@@H]1COCc2[nH]c(=O)c3cc(F)c(F)cc3c21` [Compound 251, (S)-N-(8,9-difluoro-6-oxo-1,4,5,6-tetrahydro-2H-pyrano[3,4-c]isoquinolin-1-yl)-N-methyl-5-(trifluoromethyl)-1H-pyrrolo[2,3-c]pyridine-2-carboxamide], which EC50 is on record?
**A.** 230 nM

**Q.** `CN(C(=O)c1ccc(C(C)(C)O)cc1)[C@@H]1COCc2[nH]c(=O)c3cc(F)c(F)cc3c21` [Compound 154, (S)-N-(8,9-Difluoro-6-oxo-1,4,5,6-tetrahydro-2H-pyrano[3,4-c]isoquinolin-1-yl)-4-(2-hydroxypropan-2-yl)-N-methylbenzamide] was tested. Which EC50 did it give?
**A.** 1050 nM

**Q.** For `CN(C(=O)c1ccc2[nH]ncc2c1)C1COCc2[nH]c(=O)c3cc(F)ccc3c21` (single isomer, unassigned) [Compound 449, N-(8-fluoro-6-oxo-1,4,5,6-tetrahydro-2H-pyrano[3,4-c]isoquinolin-1-yl)-N-methyl-1H-indazole-5-carboxamide], which EC50 is on record?
**A.** 5600 nM

**Q.** How did the EC50 turn out when `CN(C(=O)c1cc2cc(Cl)ccc2[nH]1)[C@@H]1COCc2[nH]c(=O)c3cc(F)c(F)cc3c21` [Compound 325, (S)-5-chloro-N-(8,9-Difluoro-6-oxo-1,4,5,6-tetrahydro-2H-pyrano[3,4-c]isoquinolin-1-yl)-N-methyl-1H-indole-2-carboxamide] was run?
**A.** 20 nM

**Q.** `CN(C(=O)c1cc2c(Br)c(Cl)ncc2[nH]1)[C@@H]1COCc2[nH]c(=O)c3cc(F)c(F)cc3c21` [Compound 384, (S)-4-Bromo-5-chloro-N-(8,9-difluoro-6-oxo-1,4,5,6-tetrahydro-2H-pyrano[3,4-c]isoquinolin-1-yl)-N-methyl-1H-pyrrolo[2,3-c]pyridine-2-carboxamide] was tested. Which EC50 did it give?
**A.** 20 nM

**Q.** Which EC50 does the source give for `CN(C(=O)C(N)c1cccc(Cl)c1)[C@@H]1COCc2[nH]c(=O)c3cc(F)c(F)cc3c21` (single isomer, unassigned) [Compound 202] here?
**A.** 16000 nM

**Q.** Which EC50 does the source give for `CNS(=O)(=O)c1cccc(C(=O)N(C)C2CNCc3[nH]c(=O)c4cc(F)c(F)cc4c32)c1` (single isomer, unassigned) [Compound 319, N-(8,9-Difluoro-6-oxo-1,2,3,4,5,6-hexahydrobenzo[c][1,7]naphthyridin-1-yl)-N-methyl-3-(N-methylsulfamoyl)benzamide] here?
**A.** 6800 nM

**Q.** `CN(C(=O)C1Cc2ccc(F)cc21)[C@@H]1COCc2[nH]c(=O)c3cc(F)c(F)cc3c21` (stereo partly drawn) [Compound 279, N-((S)-8,9-Difluoro-6-oxo-1,4,5,6-tetrahydro-2H-pyrano[3,4-c]isoquinolin-1-yl)-4-fluoro-N-methylbicyclo[4.2.0]octa-1(6),2,4-triene-7-carboxamide] was tested. Which EC50 did it give?
**A.** 9500 nM

**Q.** `CN(C(=O)c1cccc(C#N)c1)[C@@H]1COCc2[nH]c(=O)c3cc(F)c(F)cc3c21` [Compound 135, (S)-3-Cyano-N-(8,9-difluoro-6-oxo-1,4,5,6-tetrahydro-2H-pyrano[3,4-c]isoquinolin-1-yl)-N-methylbenzamide] was tested. Which EC50 did it give?
**A.** 770 nM

**Q.** With `CN(C(=O)c1cc2c(C(F)F)cc(F)cc2[nH]1)[C@@H]1CCCc2[nH]c(=O)c3cc(F)c(F)cc3c21` [Compound 483, (R)-N-(8,9-difluoro-6-oxo-1,2,3,4,5,6-hexahydrophenanthridin-1-yl)-4-(difluoromethyl)-6-fluoro-N-methyl-1H-indole-2-carboxamide] as the molecule, how does the EC50 read?
**A.** 10 nM
